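Cells were grown in 96-well plates and exposed to each compound for 48 hours at five concentrations; endpoints were interpolated linearly between bracketing concentrations, or set to the highest concentration if not reached. TGI: concentration producing complete growth inhibition.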
Legend:
Experiment in all cases: inhibition of tumour cell growth, NCI panel, 48 h
ACHN renal = tested on: ACHN renal
COLO 205 colon = tested on: COLO 205 colon
EKVX NSCLC = tested on: EKVX NSCLC
HCT-15 colon = tested on: HCT-15 colon
HOP-62 NSCLC = tested on: HOP-62 NSCLC
KM12 colon = tested on: KM12 colon
MCF7 breast = tested on: MCF7 breast
MDA-MB-231 breast = tested on: MDA-MB-231 breast
MDA-MB-435 = tested on: MDA-MB-435
NCI-H23 lung = tested on: NCI-H23 lung
NCI-H522 lung = tested on: NCI-H522 lung
RPMI-8226 leukemia = tested on: RPMI-8226 leukemia
SK-MEL-28 melanoma = tested on: SK-MEL-28 melanoma
SK-MEL-5 melanoma = tested on: SK-MEL-5 melanoma
SW-620 colon = tested on: SW-620 colon
UACC-257 melanoma = tested on: UACC-257 melanoma
UO-31 renal = tested on: UO-31 renal
SK-MEL-2 melanoma = tested on: SK-MEL-2 melanoma
SNB-19 CNS = tested on: SNB-19 CNS
PC-3 prostate = tested on: PC-3 prostate

Structure (SMILES)	TGI (ACHN renal)	TGI (COLO 205 colon)	TGI (EKVX NSCLC)	TGI (HCT-15 colon)	TGI (HOP-62 NSCLC)	TGI (KM12 colon)	TGI (MCF7 breast)	TGI (MDA-MB-231 breast)	TGI (MDA-MB-435)	TGI (NCI-H23 lung)	TGI (NCI-H522 lung)	TGI (RPMI-8226 leukemia)	TGI (SK-MEL-28 melanoma)	TGI (SK-MEL-5 melanoma)	TGI (SW-620 colon)	TGI (UACC-257 melanoma)	TGI (UO-31 renal)	TGI (SK-MEL-2 melanoma)	TGI (SNB-19 CNS)	TGI (PC-3 prostate)
CCOC(=O)c1nc2ccccc2nc1NCc1ccc(OC)cc1	> 100 µM	> 100 µM	> 100 µM	> 100 µM	> 100 µM	> 100 µM	> 100 µM	> 100 µM	> 100 µM	> 100 µM	> 100 µM	> 100 µM	> 100 µM	> 100 µM	> 100 µM	> 100 µM	> 100 µM	–	–	–
CCOC(=O)C(Cc1ccccc1)NC(=O)c1ccc(N=NN(C)C)cc1 (stereo not drawn)	> 100 µM	> 100 µM	> 100 µM	> 100 µM	> 100 µM	> 100 µM	–	–	–	> 100 µM	> 100 µM	> 100 µM	> 100 µM	> 100 µM	> 100 µM	> 100 µM	> 100 µM	> 100 µM	> 100 µM	–
CCCN1CN(C(C(=O)N[C@@H]2C(=O)N3C2SC(C)(C)C3C(=O)O)c2ccccc2)CSC1=S (stereo partly drawn)	> 100 µM	> 100 µM	> 100 µM	> 100 µM	> 100 µM	> 100 µM	–	–	–	> 100 µM	81.5 µM	> 100 µM	> 100 µM	> 100 µM	31.7 µM	> 100 µM	> 100 µM	> 100 µM	> 100 µM	–
NCC#CCNCCCN1CC1	> 100 µM	> 100 µM	> 100 µM	> 100 µM	> 100 µM	> 100 µM	> 100 µM	–	> 100 µM	> 100 µM	> 100 µM	> 100 µM	> 100 µM	> 100 µM	> 100 µM	> 100 µM	–	> 100 µM	> 100 µM	> 100 µM
CCc1ccc(Nc2cc(=O)[nH]c(SCc3ccccc3)n2)cc1	> 100 µM	> 100 µM	> 100 µM	> 100 µM	> 100 µM	> 100 µM	> 100 µM	> 100 µM	> 100 µM	> 100 µM	> 100 µM	> 100 µM	–	> 100 µM	> 100 µM	> 100 µM	> 100 µM	> 100 µM	> 100 µM	–
Cn1c(=O)[nH]c2[nH]c3ccccc3c2c1=O	> 100 µM	> 100 µM	> 100 µM	> 100 µM	> 100 µM	> 100 µM	> 100 µM	> 100 µM	> 100 µM	> 100 µM	> 100 µM	> 100 µM	> 100 µM	> 100 µM	> 100 µM	> 100 µM	> 100 µM	> 100 µM	> 100 µM	–
CC(=O)OCC1OC(n2c(C)c(N=Nc3ccccc3)c(C)c(C#N)c2=S)C(OC(C)=O)C(OC(C)=O)C1OC(C)=O (stereo not drawn)	> 100 µM	> 100 µM	–	–	34.5 µM	> 100 µM	> 100 µM	62.3 µM	> 100 µM	> 100 µM	–	> 100 µM	> 100 µM	> 100 µM	> 100 µM	> 100 µM	> 100 µM	62.2 µM	> 100 µM	> 100 µM
CC1(C)C(O)C[C@]23CCC[C@](C)(C[C@@H](O)C12)C3 (stereo partly drawn)	> 100 µM	> 100 µM	> 100 µM	> 100 µM	> 100 µM	> 100 µM	> 100 µM	–	> 100 µM	> 100 µM	> 100 µM	> 100 µM	> 100 µM	> 100 µM	> 100 µM	> 100 µM	> 100 µM	> 100 µM	> 100 µM	> 100 µM
O=C1c2cccnc2S(=O)N1Cc1ccccc1 (stereo not drawn)	> 100 µM	> 100 µM	> 100 µM	> 100 µM	–	> 100 µM	> 100 µM	> 100 µM	> 100 µM	> 100 µM	> 100 µM	> 100 µM	> 100 µM	> 100 µM	> 100 µM	> 100 µM	> 100 µM	–	> 100 µM	–
CCOc1ccccc1N=Nc1c(-c2ccccc2)nn(C(=O)CC(=O)Nc2cccc(Cl)c2)c1-c1ccccc1	> 100 µM	> 100 µM	> 100 µM	–	> 100 µM	> 100 µM	–	–	–	> 100 µM	> 100 µM	> 100 µM	> 100 µM	> 100 µM	> 100 µM	> 100 µM	> 100 µM	> 100 µM	> 100 µM	–
COC1O[C@@H]2CCN3C(=O)[C@@H](OC(=O)c4ccc([N+](=O)[O-])cc4)[C@H]1C23 (stereo partly drawn)	> 100 µM	> 100 µM	> 100 µM	–	> 100 µM	> 100 µM	> 100 µM	> 100 µM	> 100 µM	> 100 µM	> 100 µM	> 100 µM	–	> 100 µM	> 100 µM	> 100 µM	> 100 µM	–	–	–
COC(=O)CCC(NC(=O)C(C)NC(=O)COC1C(O)C(OC(=O)CCNc2c3ccccc3nc3cccc([N+](=O)[O-])c23)OC(OCc2ccccc2)C1NC(C)=O)C(N)=O (stereo not drawn)	> 10 µM	–	> 10 µM	> 10 µM	> 10 µM	> 10 µM	9.81 µM	> 10 µM	> 10 µM	> 10 µM	–	–	–	> 10 µM	4.44 µM	> 10 µM	> 10 µM	5.57 µM	> 10 µM	> 10 µM
O=C1C2=Cc3ccccc3OC2(O)Oc2cc(O)ccc21 (stereo not drawn)	> 100 µM	> 100 µM	> 100 µM	> 100 µM	> 100 µM	> 100 µM	> 100 µM	> 100 µM	> 100 µM	> 100 µM	–	> 100 µM	> 100 µM	> 100 µM	> 100 µM	> 100 µM	–	> 100 µM	–	> 100 µM
O=C(NCc1ccccc1)c1cc2cc(O)c(O)cc2cn1	> 100 µM	> 100 µM	> 100 µM	> 100 µM	81.1 µM	> 100 µM	–	–	–	46.8 µM	> 100 µM	> 100 µM	> 100 µM	50.9 µM	> 100 µM	73.1 µM	56.6 µM	97.6 µM	> 100 µM	–
O=C(C#CP(=O)(O)c1ccccc1)c1ccccc1	> 100 µM	> 100 µM	> 100 µM	> 100 µM	> 100 µM	> 100 µM	> 100 µM	–	> 100 µM	> 100 µM	> 100 µM	–	> 100 µM	> 100 µM	> 100 µM	> 100 µM	4.14 µM	> 100 µM	> 100 µM	> 100 µM
COc1ccc(CNC2=C(NC(C)=O)C(=O)c3ccccc3C2=O)cc1	8.69 µM	16.4 µM	47.3 µM	> 50 µM	> 50 µM	> 50 µM	–	–	–	14.7 µM	5.17 µM	–	> 50 µM	14.1 µM	14.9 µM	21.7 µM	40.2 µM	19.2 µM	> 50 µM	–
CC(=O)OCCCCn1cnc2nc(Nc3ccccc3)nc(Cl)c21	> 100 µM	> 100 µM	> 100 µM	> 100 µM	> 100 µM	> 100 µM	> 100 µM	> 100 µM	> 100 µM	–	–	> 100 µM	> 100 µM	> 100 µM	> 100 µM	> 100 µM	> 100 µM	> 100 µM	> 100 µM	> 100 µM
O=C1c2ccccc2-c2nc3ccc(O)cc3n21	> 100 µM	> 100 µM	> 100 µM	> 100 µM	> 100 µM	> 100 µM	> 100 µM	–	–	> 100 µM	> 100 µM	> 100 µM	> 100 µM	> 100 µM	> 100 µM	> 100 µM	> 100 µM	> 100 µM	> 100 µM	> 100 µM
OCC1NCC(O)C(O)C1O (stereo not drawn)	> 100 µM	> 100 µM	> 100 µM	> 100 µM	> 100 µM	> 100 µM	> 100 µM	–	> 100 µM	> 100 µM	> 100 µM	> 100 µM	> 100 µM	> 100 µM	> 100 µM	> 100 µM	> 100 µM	–	> 100 µM	> 100 µM
Cc1ccc2c(=O)cc(-c3cccc4ccccc34)[nH]c2n1	> 100 µM	0.676 µM	> 100 µM	1.73 µM	> 100 µM	1.98 µM	> 43.1 µM	> 100 µM	–	> 100 µM	–	–	> 100 µM	0.0897 µM	> 100 µM	> 100 µM	> 55.4 µM	2.47 µM	> 100 µM	> 43 µM
O=C(O)C(Cc1c[nH]c2ccccc12)N=Cc1nc(-c2ccccc2)oc1O (stereo not drawn)	> 100 µM	> 100 µM	> 100 µM	> 100 µM	> 100 µM	–	–	–	–	> 100 µM	> 100 µM	> 100 µM	> 100 µM	> 100 µM	> 100 µM	> 100 µM	> 100 µM	> 100 µM	> 100 µM	–
COc1ccc(C(=O)N2CCc3c([nH]c4ccccc34)C2C(=O)O)o1 (stereo not drawn)	> 10 µM	> 10 µM	> 10 µM	> 10 µM	> 10 µM	> 10 µM	> 10 µM	> 10 µM	> 10 µM	–	–	> 10 µM	> 10 µM	> 10 µM	> 10 µM	> 10 µM	–	–	> 10 µM	> 10 µM
CC(C)(C)[Si](C)(C)OCCCCC1CC2(S(=O)(=O)C3=CC=C=C=C3)ON1CC2S(=O)(=O)c1ccccc1 (stereo not drawn)	> 100 µM	> 100 µM	> 100 µM	> 100 µM	> 100 µM	> 100 µM	> 100 µM	> 100 µM	> 100 µM	> 100 µM	–	> 100 µM	> 100 µM	> 100 µM	> 100 µM	> 100 µM	> 100 µM	> 100 µM	> 100 µM	–
O=C(O)C1(C(=O)O)CC1(C(=O)O)C(=O)O	> 100 µM	> 100 µM	> 100 µM	> 100 µM	> 100 µM	> 100 µM	> 100 µM	> 100 µM	–	> 100 µM	> 100 µM	–	> 100 µM	> 100 µM	> 100 µM	> 100 µM	> 100 µM	> 100 µM	> 100 µM	> 100 µM
COc1ccccc1C(C1=C(O)COC1=O)c1cc2c(cc1OC(C)=O)OCO2 (stereo not drawn)	> 100 µM	> 100 µM	> 100 µM	> 100 µM	> 100 µM	> 100 µM	> 100 µM	> 100 µM	> 100 µM	> 100 µM	–	> 100 µM	> 100 µM	> 100 µM	> 100 µM	> 100 µM	> 100 µM	–	> 100 µM	> 100 µM
COC1=NC(NC2OCC(O)C(O)C2O)=C(NC(C)=O)CN1C (stereo not drawn)	> 100 µM	> 100 µM	> 100 µM	> 100 µM	–	> 100 µM	> 100 µM	> 100 µM	> 100 µM	> 100 µM	> 100 µM	> 100 µM	> 100 µM	> 100 µM	> 100 µM	–	> 100 µM	> 100 µM	> 100 µM	–
COC(=O)N/N=C(/CCN1CCCC1)CC(c1ccccc1)c1c(O)c2ccccc2oc1=O (stereo not drawn)	> 100 µM	> 100 µM	> 100 µM	> 100 µM	> 100 µM	> 100 µM	–	–	–	> 100 µM	> 100 µM	> 100 µM	> 100 µM	> 100 µM	> 100 µM	> 100 µM	> 100 µM	> 100 µM	> 100 µM	–
